Measured values reported in paper PMC8635623, “A click chemistry approach to pleuromutilin derivatives, evaluation of anti-MRSA activity and elucidation of binding mode by surface plasmon resonance and molecular docking” (Journal of Enzyme Inhibition and Medicinal Chemistry, 2021).
≈ marks a conversion by molar mass, not a printed value.

Key:
Experiment in all cases: MIC/MBC by broth micro dilution
MRSA ATCC 43300 = format: cell-based, methicillin-resistant S. aureus; conditions: Staphylococcus aureus; for MIC: 37 °C, 24 h, read-out: MIC; for MBC: lowest concentration reducing viable counts by 99.9%
Method: (§1) All the synthesised 1,2,3-triazole linked pleuromutilin analogues were screened for in vitro antibacterial activities against methicillin-resistant S. aureus (ATCC 43300), S. aureus (ATCC 29213), and two clinical strains of S. aureus (AD3 and 144, isolated from Guangdong Province, China). The MICs and MBCs of the synthesised pleuromutilin derivatives along with pleuromutilin and tiamulin used as the reference antibacterial drugs, were determined by the broth micro dilution methods according to the Clinical and Laboratory Standards Institute (CLSI)[18].
(§2) The MIC of these novel pleuromutilin derivatives against methicillin-resistant S. aureus (ATCC 43300), S. aureus (ATCC 29213), S. aureus (AD3) and S. aureus (144) were determined by using pleuromutilin and tiamulin as positive control. MIC values were determined by the broth micro dilution methods in accordance with the Clinical and Laboratory Standards Institute (2012). Stock solutions of these compounds were dissolved in methanol to make a stock solution with a concentration of 1280 µg/mL. The working solutions (640 µg/mL) were obtained by diluting stock solutions in sterile Mueller-Hinton (MH) broth. The bacterial solution and solutions of these compounds with a final concentration of 0.016–32 µg/mL were distributed into 96-well plates, with a total volume of 200 µL. Three parallel experiments for each compound concentration. The plates were incubated at 37 °C for 24 h.
(§3) MBC values were determined according to CLSI (2003) and previously report with slightly modification[18]^,[28]^,[31]. After obtaining the MIC results, the 96-well plates were incubated at 37 °C for 24 h. 100 µL of the bacterial solution from the wells with no visible growth was inoculated on MH agar plates. The MH agar plates were incubated at 37 °C for colony count. The MBC was determined as the lowest concentration of compound, which reduces the viable counts for 99.9%.

S. aureus AD3 = format: cell-based; conditions: Staphylococcus aureus, S. aureus AD3 (clinical strain); for MIC: 37 °C, 24 h; for MBC: lowest concentration reducing viable counts by 99.9%
Method: as §1, §2, §3

S. aureus 144 = format: cell-based; conditions: Staphylococcus aureus, S. aureus 144 (clinical strain); for MIC: 37 °C, 24 h; for MBC: lowest concentration reducing viable counts by 99.9%
Method: as §1, §2, §3

S. aureus ATCC 29213 = format: cell-based; conditions: Staphylococcus aureus; for MIC: ATCC29213, 37 °C, 24 h; for MBC: ATCC29213, lowest concentration reducing viable counts by 99.9%
Method: as §1, §2, §3

Structure (SMILES) | MIC (MRSA ATCC 43300) [µg/mL] | MIC (S. aureus AD3) [µg/mL] | MIC (S. aureus 144) [µg/mL] | MIC (S. aureus ATCC 29213) [µg/mL] | MBC (MRSA ATCC 43300) [µg/mL] | MBC (S. aureus AD3) [µg/mL] | MBC (S. aureus 144) [µg/mL] | MBC (S. aureus ATCC 29213) [µg/mL]
C=CC1(C)CC(OC(=O)Cn2cc(CN3CCC(CCO)CC3)nn2)C2(C)C(C)CCC3(CCC(=O)C32)C(C)C1O (centres unmarked) [Compound 85, 22-(2-(4-(4-(2-Hydroxyethyl)piperidin-1-yl)methyl)-1H-1,2,3-triazol-1-yl)-22-deoxy pleuromutilin] | 8 (≈ 14 µM) | 16 (≈ 28 µM) | 16 (≈ 28 µM) | 16 (≈ 28 µM) | 8 (≈ 14 µM) | 32 (≈ 56.1 µM) | 32 (≈ 56.1 µM) | 32 (≈ 56.1 µM)
C=C[C@]1(C)C[C@@H](OC(=O)Cn2cc(CN3CCN(c4ccccc4O)CC3)nn2)[C@]2(C)[C@H](C)CC[C@]3(CCC(=O)[C@H]32)[C@@H](C)[C@@H]1O [Compound 65, 22-(2-(4-(4-(2-Hydroxyphenyl)-piperazin-1-yl)-methyl)-1H-1,2,3-triazol-1-yl)-22-deoxy pleuromutilin] | 4 (≈ 6.45 µM) | 4 (≈ 6.45 µM) | 8 (≈ 12.9 µM) | 8 (≈ 12.9 µM) | 8 (≈ 12.9 µM) | 8 (≈ 12.9 µM) | 16 (≈ 25.8 µM) | 8 (≈ 12.9 µM)
C=CC1(C)CC(OC(=O)Cn2cc(CN3CCOCC3)nn2)C2(C)C(C)CCC3(CCC(=O)C32)C(C)C1O (centres unmarked) [Compound 82, 22-(2-(4-(Morpholinomethyl)methyl)-1H-1,2,3-triazol-1-yl)-22-deoxy pleuromutilin] | 8 (≈ 15.1 µM) | 16 (≈ 30.3 µM) | 16 (≈ 30.3 µM) | 16 (≈ 30.3 µM) | 8 (≈ 15.1 µM) | 32 (≈ 60.5 µM) | 32 (≈ 60.5 µM) | 16 (≈ 30.3 µM)
C=CC1(C)CC(OC(=O)Cn2cc(CN3CCCC(CO)C3)nn2)C2(C)C(C)CCC3(CCC(=O)C32)C(C)C1O (centres unmarked) [Compound 84, 22-(2-(4-(3-(Hydroxymethyl)piperidin-1-yl)methyl)-1H-1,2,3-triazol-1-yl)-22-deoxy pleuromutilin] | 8 (≈ 14.4 µM) | 16 (≈ 28.7 µM) | 32 (≈ 57.5 µM) | 16 (≈ 28.7 µM) | 16 (≈ 28.7 µM) | 32 (≈ 57.5 µM) | 32 (≈ 57.5 µM) | 32 (≈ 57.5 µM)
C=C[C@]1(C)C[C@@H](OC(=O)Cn2cc(CN3CCN(c4ccccc4Cl)CC3)nn2)[C@]2(C)[C@H](C)CC[C@]3(CCC(=O)[C@H]32)[C@@H](C)[C@@H]1O [Compound 56, 22-(2-(4-(4-(2-Chlorophenyl)-piperazin-1-yl)-methyl)-1H-1,2,3-triazol-1-yl)-22-deoxy pleuromutilin] | 4 (≈ 6.27 µM) | 16 (≈ 25.1 µM) | 16 (≈ 25.1 µM) | 8 (≈ 12.5 µM) | 4 (≈ 6.27 µM) | 32 (≈ 50.1 µM) | 32 (≈ 50.1 µM) | 32 (≈ 50.1 µM)
C=CC1(C)CC(OC(=O)Cn2cc(CN3CCC(O)CC3)nn2)C2(C)C(C)CCC3(CCC(=O)C32)C(C)C1O (centres unmarked) [Compound 83, 22-(2-(4-(4-Hydroxypiperidin-1-yl)methyl)-1H-1,2,3-triazol-1-yl)-22-deoxy pleuromutilin] | 8 (≈ 14.7 µM) | 16 (≈ 29.5 µM) | 32 (≈ 59 µM) | 16 (≈ 29.5 µM) | 16 (≈ 29.5 µM) | 32 (≈ 59 µM) | 32 (≈ 59 µM) | 32 (≈ 59 µM)
C=CC1(C)CC(OC(=O)Cn2cc(CN(C3CCCCC3)C3CCCCC3)nn2)C2(C)C(C)CCC3(CCC(=O)C32)C(C)C1O (centres unmarked) [Compound 81, 22-(2-(4-(Dicyclohexylamino)methyl)-1H-1,2,3-triazol-1-yl)-22-deoxy pleuromutilin] | 4 (≈ 6.42 µM) | 8 (≈ 12.8 µM) | 8 (≈ 12.8 µM) | 8 (≈ 12.8 µM) | 8 (≈ 12.8 µM) | 32 (≈ 51.4 µM) | 16 (≈ 25.7 µM) | 16 (≈ 25.7 µM)
C=C[C@]1(C)C[C@@H](OC(=O)CO)[C@]2(C)[C@H](C)CC[C@]3(CCC(=O)[C@H]32)[C@@H](C)[C@@H]1O [Pleuromutilin, pleuromutilin] | 2 (≈ 5.28 µM) | 2 (≈ 5.28 µM) | 2 (≈ 5.28 µM) | 4 (≈ 10.6 µM) | 4 (≈ 10.6 µM) | 4 (≈ 10.6 µM) | 4 (≈ 10.6 µM) | 8 (≈ 21.1 µM)

Continued, in another order:

MIC (MRSA ATCC 43300) [µg/mL] | MIC (S. aureus AD3) [µg/mL] | MIC (S. aureus 144) [µg/mL] | MIC (S. aureus ATCC 29213) [µg/mL] | Structure (SMILES) | MBC (MRSA ATCC 43300) [µg/mL] | MBC (S. aureus AD3) [µg/mL] | MBC (S. aureus 144) [µg/mL] | MBC (S. aureus ATCC 29213) [µg/mL]
4 (≈ 6.45 µM) | 8 (≈ 12.9 µM) | 8 (≈ 12.9 µM) | 8 (≈ 12.9 µM) | C=C[C@]1(C)C[C@@H](OC(=O)Cn2cc(CN3CCN(c4cccc(O)c4)CC3)nn2)[C@]2(C)[C@H](C)CC[C@]3(CCC(=O)[C@H]32)[C@@H](C)[C@@H]1O [Compound 66, 22-(2-(4-(4-(3-Hydroxyphenyl)-piperazin-1-yl)-methyl)-1H-1,2,3-triazol-1-yl)-22-deoxy pleuromutilin] | 8 (≈ 12.9 µM) | 32 (≈ 51.6 µM) | 16 (≈ 25.8 µM) | 16 (≈ 25.8 µM)
4 (≈ 6.62 µM) | 8 (≈ 13.2 µM) | 8 (≈ 13.2 µM) | 8 (≈ 13.2 µM) | C=C[C@]1(C)C[C@@H](OC(=O)Cn2cc(CN3CCN(c4ccccc4)CC3)nn2)[C@]2(C)[C@H](C)CC[C@]3(CCC(=O)[C@H]32)[C@@H](C)[C@@H]1O [Compound 49, 22-(2-(4-(4-Phenyl-piperazin-1-yl)-methyl)-1H-1,2,3-triazol-1-yl)-22-deoxy pleuromutilin] | 4 (≈ 6.62 µM) | 16 (≈ 26.5 µM) | 16 (≈ 26.5 µM) | 8 (≈ 13.2 µM)
4 (≈ 6.31 µM) | 4 (≈ 6.31 µM) | 8 (≈ 12.6 µM) | 8 (≈ 12.6 µM) | C=C[C@]1(C)C[C@@H](OC(=O)Cn2cc(CN3CCN(c4cccc(OC)c4)CC3)nn2)[C@]2(C)[C@H](C)CC[C@]3(CCC(=O)[C@H]32)[C@@H](C)[C@@H]1O [Compound 60, 22-(2-(4-(4-(3-Methoxyphenyl)-piperazin-1-yl)-methyl)-1H-1,2,3-triazol-1-yl)-22-deoxy pleuromutilin] | 8 (≈ 12.6 µM) | 16 (≈ 25.2 µM) | 16 (≈ 25.2 µM) | 8 (≈ 12.6 µM)
4 (≈ 6.43 µM) | 8 (≈ 12.9 µM) | 8 (≈ 12.9 µM) | 8 (≈ 12.9 µM) | C=C[C@]1(C)C[C@@H](OC(=O)Cn2cc(CN3CCN(c4ccc(F)cc4)CC3)nn2)[C@]2(C)[C@H](C)CC[C@]3(CCC(=O)[C@H]32)[C@@H](C)[C@@H]1O [Compound 55, 22-(2-(4-(4-(4-Fluorophenyl)-piperazin-1-yl)-methyl)-1H-1,2,3-triazol-1-yl)-22-deoxy pleuromutilin] | 4 (≈ 6.43 µM) | 16 (≈ 25.7 µM) | 32 (≈ 51.5 µM) | 8 (≈ 12.9 µM)
4 (≈ 6.47 µM) | 8 (≈ 12.9 µM) | 8 (≈ 12.9 µM) | 8 (≈ 12.9 µM) | C=C[C@]1(C)C[C@@H](OC(=O)Cn2cc(CN3CCN(c4ccc(C)cc4)CC3)nn2)[C@]2(C)[C@H](C)CC[C@]3(CCC(=O)[C@H]32)[C@@H](C)[C@@H]1O [Compound 52, 22-(2-(4-(4-(p-Tolyl)-piperazin-1-yl)-methyl)-1H-1,2,3-triazol-1-yl)-22-deoxy pleuromutilin] | 8 (≈ 12.9 µM) | 32 (≈ 51.8 µM) | 16 (≈ 25.9 µM) | 8 (≈ 12.9 µM)
4 (≈ 6.31 µM) | 4 (≈ 6.31 µM) | 8 (≈ 12.6 µM) | 4 (≈ 6.31 µM) | C=C[C@]1(C)C[C@@H](OC(=O)Cn2cc(CN3CCN(c4ccc(OC)cc4)CC3)nn2)[C@]2(C)[C@H](C)CC[C@]3(CCC(=O)[C@H]32)[C@@H](C)[C@@H]1O [Compound 61, 22-(2-(4-(4-(4-Methoxyphenyl)-piperazin-1-yl)-methyl)-1H-1,2,3-triazol-1-yl)-22-deoxy pleuromutilin] | 16 (≈ 25.2 µM) | 8 (≈ 12.6 µM) | 16 (≈ 25.2 µM) | 8 (≈ 12.6 µM)
4 (≈ 6.27 µM) | 16 (≈ 25.1 µM) | 8 (≈ 12.5 µM) | 8 (≈ 12.5 µM) | C=C[C@]1(C)C[C@@H](OC(=O)Cn2cc(CN3CCN(c4cccc(Cl)c4)CC3)nn2)[C@]2(C)[C@H](C)CC[C@]3(CCC(=O)[C@H]32)[C@@H](C)[C@@H]1O [Compound 57, 22-(2-(4-(4-(3-Chlorophenyl)-piperazin-1-yl)-methyl)-1H-1,2,3-triazol-1-yl)-22-deoxy pleuromutilin] | 8 (≈ 12.5 µM) | 32 (≈ 50.1 µM) | 16 (≈ 25.1 µM) | 16 (≈ 25.1 µM)
4 (≈ 6.27 µM) | 8 (≈ 12.5 µM) | 16 (≈ 25.1 µM) | 8 (≈ 12.5 µM) | C=C[C@]1(C)C[C@@H](OC(=O)Cn2cc(CN3CCN(c4ccc(Cl)cc4)CC3)nn2)[C@]2(C)[C@H](C)CC[C@]3(CCC(=O)[C@H]32)[C@@H](C)[C@@H]1O [Compound 58, 22-(2-(4-(4-(4-Chlorophenyl)-piperazin-1-yl)-methyl)-1H-1,2,3-triazol-1-yl)-22-deoxy pleuromutilin] | 4 (≈ 6.27 µM) | 32 (≈ 50.1 µM) | 32 (≈ 50.1 µM) | 16 (≈ 25.1 µM)
